Results taken from the NIST ThermoML archive (doi:10.1021/je9001653).
Values joined by “and” are separate entries in the source; they are usually repeats but may differ in a detail not shown here. Identical values can stand only once.

c1ccc2cc3ccccc3cc2c1 [anthracene]
Crystal
Conditions | vapor or sublimation pressure
339.25 K | 0.000104 kPa
348.35 K | 0.000289 kPa
360.45 K | 0.000978 kPa
365.66 K | 0.00158 kPa
373.95 K | 0.00311 kPa
376.95 K | 0.00358 kPa
379.55 K | 0.00416 kPa
386.45 K | 0.00813 kPa
389.05 K | 0.00875 kPa and 0.00962 kPa
392.95 K | 0.01486 kPa
393.75 K | 0.01211 kPa and 0.01243 kPa
398.05 K | 0.01765 kPa
398.55 K | 0.01813 kPa and 0.0185 kPa

CC(=O)[CH-]C(C)=O.CC(=O)[CH-]C(C)=O.[Cu+2] [bis(2,4-pentanedionato-O,O')copper]
Crystal
Conditions | vapor or sublimation pressure [kPa]
367.65 K | 2.2e-05
372.42 K | 3.9e-05
376.95 K | 6.8e-05
381.83 K | 0.00011
386.45 K | 0.000172
388.98 K | 0.000201
395.55 K | 0.000398
398.5 K | 0.000601
400.64 K | 0.000705
403.26 K | 0.000875
405.05 K | 0.00118
414.35 K | 0.00257
417.53 K | 0.00387
423.85 K | 0.00479
433.65 K | 0.00927
442.85 K | 0.0199

c1cc2ccc3cccc4ccc(c1)c2c34 [pyrene]
Crystal 1
Conditions | vapor or sublimation pressure [kPa]
341.45 K | 7.5e-05
351.05 K | 0.000171
369.85 K | 0.000882
373.95 K | 0.00147
379.55 K | 0.00197
383.95 K | 0.00472
389.05 K | 0.00539
392.95 K | 0.00846
398.55 K | 0.01067
402.05 K | 0.01662
408.05 K | 0.02731
